Measured values published in PubChem BioAssay AID328 (DTP/NCI, 2004).
Where “and” joins values, the source holds several entries; their conditions need not be identical. Equal entries are not always repeated. Inconclusive results and toxic doses are left out.

System: BDF1 mice, P388 leukemia ip, median survival T/C
Test: NCI In Vivo Anticancer Drug Screen. Data for tumor model P388 Leukemia (intraperitoneal) in B6D2F1 (BDF1) mice
Details: endpoint: median survival time, higher = longer survival
Summary of the method: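 Antitumour effect was judged in vivo: survival in drug-treated mice, normalised to that of vehicle-dosed controls, gives the reported T/C.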

[1] = dose: 100.0 mg/kg/injection, schedule: Q01DX001 (ip), vehicle: Klucel (hydroxypropylcellulose) (HPC)
[2] = dose: 200.0 mg/kg/injection, schedule: Q01DX001 (ip), vehicle: Klucel (hydroxypropylcellulose) (HPC)
[3] = dose: 400.0 mg/kg/injection, schedule: Q01DX001 (ip), vehicle: Klucel (hydroxypropylcellulose) (HPC)
[4] = dose: 50.0 mg/kg/injection, schedule: Q01DX009 (ip), vehicle: saline with Tween-80
[5] = dose: 100.0 mg/kg/injection, schedule: Q01DX009 (ip), vehicle: saline with Tween-80

For O=[N+]([O-])c1cccc(/C=C/C=C/c2ccc(S(=O)(=O)F)cc2Cl)c1, the T/C [1] was 100 % of control, the T/C [2] was 95 % of control and the T/C [3] was 95 % of control.
Cc1cc(O)c2c(c1)C(=O)C=CC2=O was tested, and the T/C (dose: 0.12 mg/kg/injection, schedule: Q01DX009 (ip), vehicle: other) was 107 % of control, the T/C (dose: 0.25 mg/kg/injection, schedule: Q01DX009 (ip), vehicle: other) was 101 % of control and the T/C (dose: 0.5 mg/kg/injection, schedule: Q01DX009 (ip), vehicle: other) was 117 % of control. For the same compound, the T/C (dose: 0.54 mg/kg/injection, schedule: Q01DX009 (ip), vehicle: alcohol) was 120 % of control, the T/C (dose: 0.82 mg/kg/injection, schedule: Q01DX009 (ip), vehicle: alcohol) was 110 % of control and the T/C (dose: 1.0 mg/kg/injection, schedule: Q01DX009 (ip), vehicle: other) was 103 % of control. The T/C (dose: 1.25 mg/kg/injection, schedule: Q01DX009 (ip), vehicle: alcohol) was 106 % of control, the T/C (dose: 1.8 mg/kg/injection, schedule: Q01DX009 (ip), vehicle: alcohol) was 102 % of control and the T/C (dose: 2.0 mg/kg/injection, schedule: Q01DX009 (ip), vehicle: other) was 101 % of control. For the same compound, the T/C (dose: 2.5 mg/kg/injection, schedule: Q01DX009 (ip), vehicle: alcohol) was 121 % of control.
In the case of CCOc1ccc2[nH]c(=S)sc2c1, the T/C [1] was 116 % of control, the T/C [2] was 91 % of control and the T/C [3] was 95 % of control.
In the case of CCC/[N+]([O-])=C/c1ccc([N+](=O)[O-])o1, the T/C (dose: 25.0 mg/kg/injection, schedule: Q01DX009 (ip), vehicle: saline with Tween-80) was 101 % of control, the T/C [4] was 105 % of control and the T/C [5] was 115 % of control.
In the case of Clc1ccc(NC2=NCCN=C(Nc3ccc(Cl)cc3)SS2)cc1, the T/C (dose: 50.0 mg/kg/injection, schedule: Q01DX009 (ip), vehicle: Klucel (hydroxypropylcellulose) (HPC)) was 91 % of control and the T/C (dose: 100.0 mg/kg/injection, schedule: Q01DX009 (ip), vehicle: Klucel (hydroxypropylcellulose) (HPC)) was 91 % of control.
With O=C(N/N=C/c1cccc(Cl)c1)c1ccccc1 the T/C (dose: 100.0 mg/kg/injection, schedule: Q04DX003 (ip), vehicle: other) was 95 % of control, the T/C (dose: 200.0 mg/kg/injection, schedule: Q04DX003 (ip), vehicle: other) was 95 % of control and the T/C (dose: 400.0 mg/kg/injection, schedule: Q04DX003 (ip), vehicle: other) was 113 % of control.
For NNC(=O)NO, the T/C (dose: 25.0 mg/kg/injection, schedule: Q04DX003 (ip), vehicle: saline) was 95 % of control, the T/C (dose: 50.0 mg/kg/injection, schedule: Q04DX003 (ip), vehicle: saline) was 104 % of control and the T/C (dose: 100.0 mg/kg/injection, schedule: Q04DX003 (ip), vehicle: saline) was 100 % of control.
For CC(=O)Nc1cscc1NC(C)=O, the T/C [4] was 110 % of control and 123 % of control, the T/C [5] was 119 % of control and 123 % of control and the T/C (dose: 200.0 mg/kg/injection, schedule: Q01DX009 (ip), vehicle: saline with Tween-80) was 123 % of control.
In the case of Clc1nc(SC2=NCCN2)c2[nH]cnc2n1, the T/C (dose: 12.5 mg/kg/injection, schedule: Q04DX003 (ip), vehicle: saline with Tween-80) was 108 % of control, the T/C (dose: 33.0 mg/kg/injection, schedule: Q04DX003 (ip), vehicle: saline with Tween-80) was 118 % of control and the T/C (dose: 50.0 mg/kg/injection, schedule: Q04DX003 (ip), vehicle: saline with Tween-80) was 154 % of control.
For CC(NC(=O)/C=C\C(=O)O)c1ccccc1 (stereo not given), the T/C (dose: 100.0 mg/kg/injection, schedule: Q04DX003 (ip), vehicle: saline with Tween-80) was 100 % of control, the T/C (dose: 200.0 mg/kg/injection, schedule: Q04DX003 (ip), vehicle: saline with Tween-80) was 91 % of control and the T/C (dose: 400.0 mg/kg/injection, schedule: Q04DX003 (ip), vehicle: saline with Tween-80) was 112 % of control.
CCc1nc(N)nc(N)c1-c1ccc(Cl)c(Cl)c1 was tested, and the T/C (dose: 6.25 mg/kg/injection, schedule: Q01DX010 (ip), vehicle: carboxymethylcellulose (CMC)) was 110 % of control, the T/C (dose: 8.0 mg/kg/injection, schedule: Q01DX009 (sc), vehicle: Klucel (hydroxypropylcellulose) (HPC)) was 90 % of control and the T/C (dose: 8.0 mg/kg/injection, schedule: Q03HX024 (ip), vehicle: Klucel (hydroxypropylcellulose) (HPC)) was 90 % of control. The T/C (dose: 12.5 mg/kg/injection, schedule: Q01DX010 (ip), vehicle: carboxymethylcellulose (CMC)) was 100 % of control, the T/C (dose: 25.0 mg/kg/injection, schedule: Q01DX010 (ip), vehicle: carboxymethylcellulose (CMC)) was 90 % of control and the T/C (dose: 32.0 mg/kg/injection, schedule: Q04DX003 (ip), vehicle: Klucel (hydroxypropylcellulose) (HPC)) was 163 % of control. The T/C (dose: 64.0 mg/kg/injection, schedule: Q08DX002 (ip), vehicle: Klucel (hydroxypropylcellulose) (HPC)) was 86 % of control, the T/C (dose: 128.0 mg/kg/injection, schedule: Q01DX001 (sc), vehicle: Klucel (hydroxypropylcellulose) (HPC)) was 100 % of control and the T/C (dose: 128.0 mg/kg/injection, schedule: Q08DX002 (ip), vehicle: Klucel (hydroxypropylcellulose) (HPC)) was 86 % of control.
